The target in this experiment is T1, human capsaicin receptor (Homo sapiens, UniProt Q8NER1).
T1 construct: expression consrtuct encoding the full length human capsaicin receptor; expressed in transfected cells
The experiment can be described thus: Antagonist assay for Capsaicin receptor mediated calcium mobilization. Format: cell-based. To be noted: read-out: EC50 (the source's name). In short, it runs like this: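 Cells expressing human capsaicin receptor, loaded with Fluo-3 AM, were preincubated 0.5–6 h at room temperature in the dark with test compound at 1–5 μM final in KRH buffer (pH 7.4, 2 mM CaCl2, probenecid). Capsaicin at its EC50 was then added via FLIPR; IC50 is the antagonist concentration halving the calcium signal.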

Experimental findings from patent US20020132853A1, “Capsaicin receptor ligands” (priority 2000, published 2002) are described below.

SMILES strings stand for the structures. Read-outs that look alike come from different tables or passages of the source. Some results are limits rather than exact numbers.

T1 sequence (Q8NER1 whole entry): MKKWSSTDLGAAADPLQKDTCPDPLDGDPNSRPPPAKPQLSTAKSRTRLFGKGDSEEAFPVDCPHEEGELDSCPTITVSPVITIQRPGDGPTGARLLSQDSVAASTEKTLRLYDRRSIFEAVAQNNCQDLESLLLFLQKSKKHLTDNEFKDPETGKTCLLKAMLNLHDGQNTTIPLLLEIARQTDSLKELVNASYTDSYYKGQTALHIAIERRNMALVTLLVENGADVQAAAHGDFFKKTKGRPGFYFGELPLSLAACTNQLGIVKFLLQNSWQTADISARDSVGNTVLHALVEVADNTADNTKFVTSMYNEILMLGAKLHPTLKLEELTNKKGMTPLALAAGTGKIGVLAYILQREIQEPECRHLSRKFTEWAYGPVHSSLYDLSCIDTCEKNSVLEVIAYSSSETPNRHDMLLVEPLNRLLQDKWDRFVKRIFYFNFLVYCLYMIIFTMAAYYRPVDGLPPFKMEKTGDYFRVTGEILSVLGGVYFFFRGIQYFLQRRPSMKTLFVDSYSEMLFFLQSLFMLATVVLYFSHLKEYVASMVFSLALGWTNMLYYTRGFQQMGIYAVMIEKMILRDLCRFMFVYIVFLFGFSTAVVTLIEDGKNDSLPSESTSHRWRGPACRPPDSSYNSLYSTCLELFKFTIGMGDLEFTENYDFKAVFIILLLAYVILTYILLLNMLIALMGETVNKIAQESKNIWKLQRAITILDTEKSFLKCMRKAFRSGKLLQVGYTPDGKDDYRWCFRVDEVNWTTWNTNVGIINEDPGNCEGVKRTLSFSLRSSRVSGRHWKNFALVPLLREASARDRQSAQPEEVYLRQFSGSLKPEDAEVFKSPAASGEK

On to `CCC(C)c1ccc(NC(=O)N2CCN(c3ncccc3F)C[C@H]2C)cc1` (stereo partly drawn) [Compound 128, (2R)-N-(4-sec-butylphenyl)-4-(3-fluoropyridin-2-yl)-2-methylpiperazine-1-carboxamide], for which the IC50 (Table V) is less than 1 µM.

As for `CC(c1ccc(NC(=O)N2CCN(c3ncccc3C(F)(F)F)C[C@H]2C)cc1)C(F)(F)F` (stereo partly drawn) [Compound 129, (2R)-2-methyl-N-[4-(2,2,2-trifluoro-1-methylethyl)phenyl]-4-[3-(trifluoromethyl)pyridin-2-yl]piperazine-1-carboxamide], the IC50 (Table V) was less than 1 µM. Still for that read-out and setting: the result for `CC(c1ccc(NC(=O)N2CCN(c3ncccc3F)C[C@H]2C)cc1)C(F)(F)F` (stereo partly drawn) [Compound 130, (2R)-4-(3-fluoropyridin-2-yl)-2-methyl-N-[4-(2,2,2-trifluoro-1-methylethyl)phenyl]piperazine-1-carboxamide] reads less than 1 µM; that for `C[C@@H]1CN(c2ncc([N+](=O)[O-])cc2Cl)CCN1C(=O)Nc1ccc(C(F)(F)F)cc1` [Compound 131, (2R)-4-(3-chloro-5-nitrpyridin-2-yl)-2-methyl-N-[4-(trifluoromethyl)phenyl]piperazine-1-carboxamide], less than 1 µM.

For `C[C@@H]1CN(c2ncc(N)cc2Cl)CCN1C(=O)Nc1ccc(C(F)(F)F)cc1` [Compound 132, (2R)-4-(5-amino-3-chloropyridin-2-yl)-2-methyl-N-[4-(trifluoromethyl)phenyl]piperazine-1-carboxamide], for the setting “Table V”, the IC50 is less than 1 µM.

Turning to `C[C@@H]1CN(c2ncccc2S(N)(=O)=O)CCN1C(=O)Nc1ccc(C(C)(C)C)cc1` [Compound 139, (2R)-4-[3-(aminosulfonyl)pyridin-2-yl]-N-(4-tert-butylphenyl)-2-methylpiperazine-1-carboxamide], the IC50 (Table V) is less than 1 µM. On to `C[C@@H]1CN(c2ncccc2Cl)CCN1C(=O)Nc1ccc(C(=O)c2ccccc2)cc1` [Compound 140, (2R)-N-(4-benzoylphenyl)-4-(3-chloropyridin-2-yl)-2-methylpiperazine-1-carboxamide], for which the IC50 (Table V) was less than 1 µM. Still for that read-out and setting: the result for `C[C@@H]1CN(c2ncccc2Cl)CCN1C(=O)Nc1ccc(I)cc1` [Compound 141, (2R)-4-(3-chloropyridin-2-yl)-N-(4-iodophenyl)-2-methylipierazine-1-carboxamide] reads less than 1 µM. Still for that read-out and setting: as for `C[C@@H]1CN(c2ncccc2Cl)CCN1C(=O)Nc1ccc2c(c1)Cc1ccccc1-2` [Compound 142, (2R)-4-(3-chloropyridin-2-yl)-N-(9H-flouren-2-yl)-2-methylpiperazine-1-carboxamide], the figure is less than 1 µM; as for `C[C@@H]1CN(c2ncccc2C(F)(F)F)CCN1C(=O)Nc1ccc2c(c1)Cc1ccccc1-2` [Compound 143, (2R)-N-(9H-fluoren-2-yl)-2-methyl-4-[3-(trifluoromethyl)pyridin-2-yl]piperazine-1-carboxamide], less than 1 µM. On the same count and under the same terms, as for `C[C@@H]1CN(c2ncccc2Cl)CCN1C(=O)Nc1ccc(C(C(F)(F)F)(C(F)(F)F)C(F)(F)F)cc1` [Compound 148, *2R)-4-(3-chloropyridin-2-yl)-2-methyl_n_{4-[2,2,2-trifluoro-1,1-bis(trifluoromethyl)-ethyl]phenyl}piperazine-1-carboxamide], the figure is less than 1 µM; as for `C[C@@H]1CN(c2ncccc2C(F)(F)F)CCN1C(=O)Nc1ccc(C(C(F)(F)F)(C(F)(F)F)C(F)(F)F)cc1` [Compound 149, (2R)-2-methyl-N-{4-[2,2,2-trifluoro-1,1-bis(trifluoromethyl)-ethyl]phenyl}-4-[3-(trifluoromethyl)pyridin-2-yl]piperazine-1-carboxamide], less than 1 µM; as for `C[C@@H]1CN(c2ncccc2Cl)CCN1C(=O)Nc1cccc(I)c1` [Compound 150, (2R)-4-(3-chloropyridin-2-yl)-N-(3-iodophenyl)-2-methylpiperazine-1-carboxamide], less than 1 µM. Regarding `C[C@@H]1CN(c2ncccc2F)CCN1C(=O)Nc1cccc(I)c1` [Compound 151, (2R)-4-(3-fluoropyridin-2-yl)-N-(3-iodophenyl)-2-methylpiperazine-1-carboxamide], the IC50 (Table V) was less than 1 µM. On the same count and under the same terms, as for `CCCCc1ccc(NC(=O)N2CCN(c3ncccc3Cl)C[C@H]2C)cc1` [Compound 152, (2R)-N-(4-butylphenyl)-4-(3-chloropyridin-2-yl)-2-methylpiperazine-1-carboxamide], the figure is less than 1 µM.

As to `O=C(Nc1ccc(C(F)(F)F)cc1)N1CCN(c2ncccc2C(F)(F)F)CC1CF` (centres unmarked) [Compound 153, 2-(fluoromethyl)-N-[4-(trifluoromethyl)phenyl]-4-[3-(trifluoromethyl)pyridin-2-yl]piperazine-1-carboxamide], for the setting “Table V”, the IC50 was less than 1 µM. Regarding `Cc1ccc(NC(=O)N2CCN(c3ncccc3C(F)(F)F)C[C@H]2C)cc1C(F)(F)F` [Compound 155, (2R)-2-methyl-N-[4-methyl-3-(trifluoromethyl)phenyl]-4-[3-(trifluoromethyl)pyridin-2-yl]piperazine-1-carboxamide], the IC50 (Table V) was less than 1 µM. On the same count and under the same terms, as for `C[C@@H]1CN(c2ncccc2Cl)CCN1C(=O)Nc1ccc(Br)c(C(F)(F)F)c1` [Compound 156, (2R)-N-[4-bromo-3-(trifluoromethyl)phenyl]-4-(3-chloropyridin-2-yl)-2-methylpiperazine-1-carboxamide], the figure is less than 1 µM. The same measure, in the same setting: the result for `C[C@@H]1CN(c2ncccc2C(F)(F)F)CCN1C(=O)Nc1ccc(Br)c(C(F)(F)F)c1` [Compound 157, (2R)-N-[4-bromo-3-(trifluoromethyl)phenyl]-2-methyl-4-[3-(trifluoromethyl)pyridin-2-yl]piperazine-1-carboxamide] reads less than 1 µM. As for `C[C@@H]1CN(c2ncccc2Cl)CCN1C(=O)Nc1ccc(Cl)c(C(F)(F)F)c1` [Compound 158, (2R)-4-(3-chloropyridin-2-yl)-N-[4-chloro-3-(trifluoromethyl)phenyl]-2-methylpiperazine-1-carboxamide], the IC50 (Table V) was less than 1 µM.

Regarding `C[C@@H]1CN(c2ncccc2Cl)CCN1C(=O)Nc1ccc(F)c(C(F)(F)F)c1` [Compound 159, (2R)-4-(3-chlorpyridin-2-yl)-N-[4-fluoro-3-(trifluoromethyl)phenyl]-2-methylpiperazine-1-carboxamide], the IC50 (Table V) is less than 1 µM. On the same count and under the same terms, the result for `C[C@@H]1CN(c2ncccc2C(F)(F)F)CCN1C(=O)Nc1ccc(Cl)c(C(F)(F)F)c1` [Compound 160, (2R)-N-[4-chloro-3-(trifluoromethyl)phenyl]-2-methyl-4-[3-(trifluoromethyl)pyridin-2-yl]piperazine-1-carboxamide] reads less than 1 µM; that for `C[C@@H]1CN(c2ncccc2C(F)(F)F)CCN1C(=O)Nc1ccc(F)c(C(F)(F)F)c1` [Compound 161, (2R)-N-[4-fluoro-3-(trifluoromethyl)phenyl]-2-methyl-4-[3-(trifluoromethyl)pyridin-2-yl]piperazine-1-carboxamide], less than 1 µM; that for `C[C@@H]1CN(c2ncccc2Cl)CCN1C(=O)Nc1ccc(C(F)(C(F)(F)F)C(F)(F)F)cc1` [Compound 162, (2R)-4-(3-chloropyridin-2-yl)-2-methyl-N-{4-[1,2,2,2-tetrafluoro-1-(trifluoromethyl)ethyl]phenyl}piperazine-1-carboxamide], less than 1 µM. Same read-out and setting: the result for `C[C@@H]1CN(c2ncccc2C(F)(F)F)CCN1C(=O)Nc1ccc(C(F)(C(F)(F)F)C(F)(F)F)cc1` [Compound 163, (2R)-2-methyl-N-{4-[1,2,2,2-tetrafluoro-1-(trifluoromethyl)ethyl]phenyl}-4-[3-(trifluoromethyl)pyridin-2-yl]piperazine-1-carboxamide] reads less than 1 µM. For the compound `C[C@@H]1CN(c2nccnc2Cl)CCN1C(=O)Nc1ccc(C(F)(C(F)(F)F)C(F)(F)F)cc1` [Compound 164, (2R)-4-(3-chloropyrazin-2-yl)-2-methyl-N-{4-[1,2,2,2-tetrafluoro-1-(trifluoromethyl)ethyl]phenyl}piperazine-1-carboxamide], the IC50 (Table VI) was less than 1 µM. For `C[C@@H]1CN(c2nccnc2Cl)CCN1C(=O)Nc1ccc(C2CCCC2)cc1` [Compound 165, (2R)-4-(3-chloropyrazin-2-yl)-2-methyl-N-{4-cyclopentyl-phenyl}piperazine-1-carboxamide], the IC50 (Table VI) was less than 1 µM.

In the case of `C[C@@H]1CN(c2nccnc2Cl)CCN1C(=O)Nc1ccc(C2CCCCC2)cc1` [Compound 166, (2R)-4-(3-chloropyrazin-2-yl)-2-methyl-N-{4-cyclohexyl-phenyl}piperazine-1-carboxamide], where the note is “Table VI”, the IC50 is less than 1 µM.

Turning to `CCCCc1ccc(NC(=S)N2CCN(c3ncccc3Cl)C[C@H]2C)cc1` [Compound 167], the IC50 (Table VI) is less than 1 µM. Still for that read-out and setting: the result for `C[C@@H]1CN(c2ncccc2Cl)CCN1C(=S)Nc1ccc(C(C)(C)C)cc1` [Compound 168] reads less than 1 µM; that for `CC(C)c1ccc(NC(=S)N2CCN(c3ncccc3Cl)C[C@H]2C)cc1` [Compound 169], less than 1 µM. `CC(C)c1ccc(NC(=S)N2CCN(c3ncccc3Cl)C[C@@H]2C)cc1` [Compound 170]: the IC50 (Table VI) is less than 1 µM. Consider `C[C@H]1CN(c2ncccc2Cl)CCN1C(=S)Nc1ccc(C(C)(C)C)cc1` [Compound 171], for which the IC50 (Table VI) is less than 1 µM. For the compound `C[C@@H]1CN(c2ncccc2Cl)CCN1C(=S)Nc1ccc(C(F)(F)F)cc1` [Compound 172], the IC50 (Table VI) was less than 1 µM.

As for `C[C@@H]1CN(c2ncccc2Cl)CCN1C(=O)Oc1ccc(C(C)(C)C)cc1` [Compound 173], where the note is “Table VI”, the IC50 is less than 1 µM.
